Experimental data: US8546382B2, “Methods for enhancing hematopoietic progenitor cell engraftment” (Children's Medical Center Corporation, priority 2009, dated 2013)
“Also recorded” adds a separate entry of the source.

Key:
[1] = system: wild-type female FVB mice; assay: BM transplantation in lethally irradiated wild-type mice with daily BADGE; format: in vivo, mouse
Method: BM transplants were performed in wild-type female FVB mice as described for FIG. 2 except that 30 mg/kg BADGE or control vehicle (DMSO 10%) were administered through daily intra-peritoneal injections from the day prior to irradiation until day 14 post-transplant. 4a. […] 4b. Colony forming unit assay (CFU) from the recovered donor BM.
Finally, it was tested whether pharmacologic antagonism of adipogenesis could enhance bone marrow engraftment in wild-type mice.
Thorax, tibias and tails for homeostasis studies were isolated from wildtype C57BL6/J mice. When BM transplantation was performed, B6.SJL-Ptprca Pep3b/BoyJ were used as donors to take advantage of the CD45.1/CD45.2 allelic system (Jackson Laboratories #0002014). Bone marrow transplantation and CFU-Spleen assays were performed on lethally irradiated mice (two 5.5Gy doses separated by 3 hrs) and cells were administered by tail vein injection within 24 hrs of lethal irradiation. For competitive transplantation, samples were competed against 250,000 recipient-matched competitor femoral bone marrow. FVB wildtype litter-mates mice were used as controls for FVB.A-ZIP/F1 fatless mice. During BM transplantation assays FVB or FVB.A-ZIP/F1 mice (CD45.1) received 200,000 MHC-matched (H^q) wildtype BM from DBA/1J mice (CD45.2). Secondary transplants were performed through recovery of the CD45.2 […] BM passed through the FVB wildtype or FVB.A-ZIP/F1 microenvironment, which was then transplanted into FVB (CD45.1) recipients together with 250,000 FVB (CD45.1) wildtype competitor BM cells. For pharmacological inhibition of adipocyte formation, BM transplants were performed in wild-type female FVB mice as described above, except that 30 mg/kg BADGE or control vehicle (DMSO 10%) were administered in daily intraperitoneal injections starting one day prior to irradiation and continuing until day 14 post-transplant. Solutions were made such that 500 mg BADGE (Fluka) was resuspended in 8.3 ml DMSO (Sigma) and diluted in PBS to a final concentration of 10% DMSO for administration at 30 mg/kg in 100 ul. Aliquots were stored at −20° C. and thawed daily. Multicolor flow cytometry was performed in a special order BD five-laser LSRII flow cytometer. Cell cycle analysis was performed with DAPI (Sigma) in cells fixed in 2% paraformaldehyde for 15 min at 4° C. For all statistical analysis an un-paired two-tailed Student's t-test was performed assuming experimental samples of equal variance. […]
Mice were lethally irradiated with 11-12Gy on a split dose separated by 2.5 h and BM transplants were performed within 24 h by tail-vein injection. Engraftment was measured monthly through eye bleed and FACS analysis with CD45.1-FITC (eBiosciences), CD45.2-PE or CD45.2-biotin, CD3-PE, CD19-PE, Mac-1-PE. […]

Wildtype BM = assay: Colony forming unit (CFU) assay of wildtype BM plated with BADGE in vitro; format: cell-based, mouse; details: BADGE 30 mg/kg vs DMSO vehicle control (0.5 μL/mL); after 8-10 days
Method: 14a. Wildtype BM was plated in the presence of BADGE 30 mg/kg, or DMSO vehicle control (0.5 μL/mL).
Colony forming unit (CFU) assays were performed in complete M3434 methylcellulose (Stem Cell Technologies) following the manufacturer's instructions. Colonies were scored on day 8-10 on coded plates for unbiased counts.

[2] = system: bone marrow adipocyte formation; details: in vitro and in vivo in models of streptozotocin-induced diabetes; cited from earlier work
[3] = system: whole bone marrow collected from the DBA/1J mouse strain; assay: Hematopoietic colony formation in methylcellulose (M3434) in the presence of PPAR gamma inhibitors; format: cell-based; details: 3 ml M3434 with 1.5 μL of working concentration of each compound; N=2
Method: Progenitor activity was measured by formation of hematopoietic colonies in methylcellulose (M3434) from whole bone marrow collected from the DBA/1J mouse strain. Cells were plated in 3 ml M3434 along with 1.5 μL of the working concentration of each compound.

patients = patients treated with the PPARγ agonist; cited from earlier work

For `CC(C)(c1ccc(OCC2CO2)cc1)c1ccc(OCC2CO2)cc1` (centres unmarked) [BADGE, Bisphenol-A-DiGlycidyl-Ether], the “White blood cell (WBC) / leukocyte counts in peripheral blood in the post-transplant period” value ([1]; 30 mg/kg BADGE daily i.p. from day prior to irradiation until day 14 post-transplant, vs vehicle (DMSO 10%)) was “Higher peripheral blood leukocyte counts; also recorded: accelerated recovery”, the “Colony forming units (CFU) from the recovered donor BM” value ([1]; 30 mg/kg BADGE daily i.p., donor CD45.2 BM recovered day 17 post-transplant) was “enrichment in colony forming units” and the “BM adipocyte formation by H&E staining of femurs” value ([1]; BADGE for two weeks following BM transplantation, mice sacrificed day 17 post-transplant) was “successful inhibition of BM adipocyte formation”. The “Hematopoietic recovery after BM transplant” value ([1]; pharmacologic inhibition of adipocyte formation with BADGE) was “enhances hematopoietic recovery”, the “Ability to form CFUs (hematopoietic colony formation) in vitro” value (Wildtype BM) was “does not enhance hematopoietic colony formation; also recorded: No difference” and the “Bone marrow adipocyte formation” value [2] was “prevent bone marrow adipocyte formation”.
For `O=C(Nc1ccncc1)c1cc([N+](=O)[O-])ccc1Cl` [T0070907, 2-chloro-5-nitro-N-4-pyridinyl-benzamide], the “Number of hematopoietic colonies relative to vehicle control” value [3] was “fewer colonies relative to the vehicle control”.
In the case of `CN(CCOc1ccc(CC2SC(=O)NC2=O)cc1)c1ccccn1` (centres unmarked) [rosiglitazone], the “Adverse haematological effect in treated patients” value (patients) is given as “myelosuppression”.
